The record followed here is patent US20190110476A1, “NOVEL ISOTHIAZOLAMIDES, PROCESSES FOR THEIR PREPARATION AND THEIR USE AS FUNGICIDES” (priority 2014, published 2019).

Molecules are shown by their SMILES. Marks after values point to notes of the source that are not given here.

The first series is described as follows: Measurement of LogP values by HPLC on reversed phase columns (EEC directive 79/831 Annex V.A8). The class given is physicochemical.
Conditions: not given
In outline:
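LogP measured by reversed-phase HPLC following EEC directive 79/831 Annex V.A8. Lambda-max taken from UV spectra at 200–400 nm at chromatographic peak maxima; diastereoisomer values listed separately.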
Consider `COc1ccc(CNc2nsc(C(=O)NCc3ccc(F)c(Oc4ccccc4)c3)c2Cl)cc1` [I-223], for which the LogP was 4.34[a]. Turning to `Nc1nsc(C(=O)NCc2cccnc2Cl)c1Cl` [I-036], the LogP was 1.22[a]. As for `COc1cc(F)ccc1CNC(=O)c1snc(NC(=O)C(F)F)c1Cl` [I-820], the LogP was 2.23[a]. Consider `O=C(c1cc(N(Cc2ccccc2)Cc2ccccc2)ns1)N(Cc1cc(F)ccc1F)C1CC1` [I-991], for which the LogP is 5.25[a].

Turning to `CC1(CNC(=O)c2snc(N)c2Cl)CCCCC1` [I-086], the LogP was 2.84[a].

Take `CS(C)=Nc1nsc(C(=O)NCc2ccc(F)cc2F)c1F` [II-057]: the “LogP [a]” value was 1.30^[a]. For `CCOC(=O)C1CCC(NC(=O)c2snc(N)c2Cl)CC1` (stereo not drawn) [I-844], the LogP was 2.02[a]. In the case of `Nc1nsc(C(=O)N(c2ccc(F)cc2)C2CC2)c1Cl` [I-917], the LogP was 2.21[a].

For `COc1ccc(CNc2nsc(C(=O)NC3(C#N)CCCC3C)c2Cl)cc1` (stereo not drawn) [I-1220], the LogP is 3.41[a]. On the same count and under the same terms, as for `COc1ccc(CNC(=O)c2snc(N)c2Cl)c(F)c1` [I-126], the figure is 1.88[a]; as for `CCC(=O)N(C(=O)CC)c1nsc(C(=O)NCc2ccc(C#N)cc2)c1Cl` [I-810], 2.89[a]. Same read-out and setting: as for `COc1ccc(CNC(=O)c2snc(N)c2Cl)cc1O` [I-1568], the figure is 1.03[a]. Turning to `Cc1ccc(C(C)(C)C)c(CN(C(=O)c2snc(Cl)c2Cl)C2CC2)c1` [E-II-015], the “LogP [a]” value is 5.65^[a].

Take `O=C(NCC1CCCO1)c1snc(N=C(c2ccccc2)c2ccccc2)c1Cl` (stereo not drawn) [II-005]: the “LogP [a]” value was 3.83^[a]. With `CCOC(=O)C1CCC(NC(=O)c2snc(N)c2Cl)CC1` (stereo not drawn) [I-843], the LogP was 1.92[a]. Consider `Nc1cc(C(=O)NCCc2ncc(C(F)(F)F)cc2Cl)sn1` [I-919], for which the LogP is 2.01[a]. `CCC(NC(=O)c1cc(N)ns1)C1CCCCC1` (stereo not drawn) [I-1407]: the LogP is 2.30[b]. Take `O=C(c1cc(N(Cc2ccccc2)Cc2ccccc2)ns1)N(Cc1ccccc1)C1CC1` [I-910]: the LogP is 5.36[a]. For the compound `COc1ccc(CNC(=O)c2cc(N)ns2)cc1` [I-052], the LogP was 1.28[a]. `CCOc1c(N)nsc1C(=O)NCc1c(F)cc(F)cc1F` [I-724]: the LogP is 2.09[a]. For `CC(Cc1ccc(Cl)cc1)NC(=O)c1snc(N)c1Cl` (stereo not drawn) [II-027], the “LogP [a]” value was 2.68^[a]. Take `CCC1(C)CC(NC(=O)c2snc(N)c2Cl)CC(C)(C)C1` (stereo not drawn) [I-1535]: the LogP is 4.01[a]. The same measure, in the same setting: the value for `COc1ccc(CNc2nsc(C(=O)NCc3ccc(OC)c(F)c3)c2Cl)cc1` [I-224] was 3.44[a]. On to `O=C(O)c1snc(N(Cc2ccccc2)Cc2ccccc2)c1Br` [E-VIII-004], for which the “LogP [a]” value is 3.83^[a].

Turning to `Cc1c(N)nsc1C(=O)NCc1cc(F)cc(F)c1F` [I-585], the LogP is 1.82[a]. Still for that read-out and setting: as for `COc1ccc(CNc2nsc(C(=O)NCC3C(C)CCCC3(C)C)c2Cl)cc1` (stereo not drawn) [I-076], the figure is 5.48[a]; as for `Nc1cc(C(=O)NCc2ccc(Cl)cc2Cl)sn1` [I-306], 2.11[a]; as for `COc1ccc(CNc2nsc(C(=O)NC3CCCc4cc(C(C)(C)C)ccc43)c2Cl)cc1` (stereo not drawn) [I-1311], 5.46[a]. For the compound `CS(C)=Nc1nsc(C(=O)NCc2c(F)cc(F)cc2F)c1F` [II-079], the “LogP [a]” value was 1.40^[a]. `Nc1nsc(C(=O)N(Cc2ccc(Cl)cc2Cl)C2CCC2)c1Cl` [I-211]: the LogP is 3.85[a]. Still for that read-out and setting: as for `Nc1nsc(C(=O)NCC2CCOC2)c1Cl` (stereo not drawn) [I-011], the figure is 0.73[a]; as for `Nc1cc(C(=O)NCc2c(F)cc(F)cc2F)sn1` [I-180], 1.50[a]; as for `COc1ccc(CNc2nsc(C(=O)NCc3ccc(F)c(C(F)(F)F)c3)c2Cl)cc1` [I-1272], 4.06[a]. On the same count and under the same terms, as for `CS(=O)(=O)N(c1nsc(C(=O)NCc2ccccc2F)c1Cl)S(C)(=O)=O` [I-185], the figure is 2.80[a]. Same read-out and setting: as for `N#Cc1ccccc1CNC(=O)c1snc(N)c1Cl` [I-1288], the figure is 1.43[a].

In the case of `COc1c(N)nsc1C(=O)NCc1c(F)cc(F)cc1F` [I-732], the LogP is 1.82[a]. The same measure, in the same setting: the value for `Nc1nsc(C(=O)NCC2CCCCC2F)c1Cl` (stereo not drawn) [I-1306] was 1.97[a]; that for `Nc1nsc(C(=O)NCc2ccc(F)c(F)c2)c1Cl` [I-125] was 1.93[a]; that for `Nc1nsc(C(=O)N(Cc2ccc(Cl)cc2Cl)C2CC2)c1Cl` [I-209] was 3.37[a]. The same measure, in the same setting: as for `Cc1c(N)nsc1C(=O)NCc1cc(F)c(F)c(F)c1` [I-584], the figure is 1.92[a]. As for `CS(C)=Nc1nsc(C(=O)NCC2CCCO2)c1F` (stereo not drawn) [II-070], the “LogP [a]” value is 0.44^[a]. `CNC(=O)c1snc(N)c1Cl` [I-884]: the LogP was 0.32[a]. As to `O=C(c1cc(N(Cc2ccccc2)Cc2ccccc2)ns1)N(Cc1cc(Cl)ccc1Br)C1CC1` [I-993], the LogP was 6.11[a].

Turning to `CC(C)(NC(=O)c1snc(NCc2ccccc2)c1Cl)C1CCCCC1` [I-048], the LogP was 5.35[a]. On to `Cc1c(N)nsc1C(=O)NCc1c(F)cccc1F` [I-146], for which the LogP is 1.49[a]. On the same count and under the same terms, as for `COc1ccc(CNc2nsc(C(=O)NC3CCc4ccccc43)c2Cl)cc1` (stereo not drawn) [I-111], the figure is 4.04[a]; as for `CC(C)N(Cc1ccc(Cl)cc1Cl)C(=O)c1snc(N)c1Cl` [I-213], 3.71[a]. In the case of `CC(=O)N(C(C)=O)c1nsc(C(=O)N(C(C)C)C(C)C)c1Cl` [I-975], the LogP was 2.77[a]. As for `CC(c1ccccc1)N(C(=O)c1snc(N)c1Cl)C1CC1` (stereo not drawn) [I-886], the LogP was 2.73[a]. On to `COc1ccc(CNc2nsc(C(=O)NCc3ccc(Cl)cc3F)c2Cl)cc1` [I-225], for which the LogP is 4.03[a]. As to `COc1ccc(CNC(=O)c2snc(N)c2Cl)cn1` [I-114], the LogP is 1.23[a]. Turning to `Cc1ccc(CNC(=O)c2snc(N)c2Cl)o1` [I-814], the LogP is 1.66[a]. Same read-out and setting: the value for `CCOc1c(N)nsc1C(=O)NCc1ccc(Cl)cc1` [I-731] was 2.26[a]; that for `COc1ccc(CNc2nsc(C(=O)NCc3cc(F)cc(C(F)(F)F)c3)c2Cl)cc1` [I-1264] was 4.15[a]. As for `C#Cc1c(N)nsc1C(=O)NCC1CCCCC1F` (stereo not drawn) [I-1359], the LogP is 2.05[a].

For the compound `CCC(c1cc(Cl)cc(Cl)c1)N(C(=O)c1snc(N)c1Cl)C1CC1` (stereo not drawn) [I-955], the LogP is 4.17[a]. Consider `Nc1nsc(C(=O)N2CCCc3cc(Cl)ccc32)c1Cl` [II-026], for which the “LogP [a]” value is 2.66 and the “LogP [b]” value worked out at 2.60. As to `Nc1nsc(C(=O)NCc2cc(Cl)cc(Cl)c2)c1Cl` [I-027], the LogP is 2.63[a].

As to `COc1ccc(CNc2nsc(C(=O)NCc3ccc(Oc4ccccc4)cc3)c2Cl)cc1` [I-221], the LogP is 4.41[a]. As to `COc1ccc(CNc2nsc(C(=O)NC3CCC(C4CCCCC4)CC3)c2Cl)cc1` (stereo not drawn) [I-1347], the LogP is 6.25[a]. Still for that read-out and setting: the value for `O=C(NCc1ccc(Cl)cc1)c1snc(NCC(F)(F)F)c1Cl` [I-578] was 3.44[a]. For the compound `Nc1nsc(C(=O)NCC2CCCCC2Cl)c1F` (stereo not drawn) [I-1536], the LogP is 2.16[a]. As for `COc1ccc(CNc2nsc(C(=O)N(C3CC3)C(C)c3ccccc3)c2Cl)cc1` (stereo not drawn) [I-873], the LogP was 4.17[a].

In the case of `O=C(NCc1cc(F)cc(F)c1)c1cc(N(Cc2ccccc2)Cc2ccccc2)ns1` [I-285], the LogP is 4.53[a]. Still for that read-out and setting: the value for `COc1ccc(CNc2nsc(C(=O)Nc3cccc4c3C(C)CC4(C)C)c2Cl)cc1` (stereo not drawn) [I-880] was 5.42[a]; that for `O=C(NCCc1ccccc1)c1snc(N(Cc2ccccc2)Cc2ccccc2)c1-c1ccc(F)cc1` [I-983] was 5.68[a]; that for `C[C@H](NC(=O)c1snc(NC(=O)C2CC2)c1Cl)C1CCCCC1` [I-090] was 2.99[a]. In the case of `COc1ccc(CNc2nsc(C(=O)N[C@@H]3CCCC[C@@H]3C)c2Cl)cc1` (relative stereo) [I-1550], the LogP was 4.18[a]. The same measure, in the same setting: the value for `Nc1nsc(C(=O)NCc2ccc(Cl)cc2F)c1Cl` [I-181] was 2.40[a]. Turning to `COc1ccc2c(c1)CCCN2C(=O)c1snc(N)c1Cl` [II-017], the “LogP [a]” value is on record as 2.11 and the “LogP [b]” value amounted to 2.06. Regarding `COc1ccc(CNc2nsc(C(=O)NCCc3cccs3)c2Cl)cc1` [I-1269], the LogP was 3.55[a]. The same measure, in the same setting: as for `C[C@H](NC(=S)c1snc(NCC(F)(F)F)c1Cl)C1CCCCC1` [I-429], the figure is 5.14[a]; as for `CC1(C)CCCCC1NC(=O)c1snc(N)c1Cl` (stereo not drawn) [I-082], 2.66[a]; as for `COc1ccc(CNc2nsc(C(=O)NC(C)C3(Cl)CC3)c2Cl)cc1` (stereo not drawn) [I-1250], 3.90[a].

For the compound `CNS(=O)(=O)Nc1nsc(C(=O)NCC2CCCCC2)c1Cl` [II-051], the “LogP [a]” value was 2.38^[a]. Consider `COc1ccc(CNc2nsc(C(=O)N(Cc3c(C)cc(C)cc3C)C3CC3)c2Cl)cc1` [I-870], for which the LogP was 4.94[a]. On the same count and under the same terms, as for `Nc1cc(C(=O)NCCC2CCCCC2)sn1` [I-853], the figure is 2.23[a].

As for `COc1ccc(CNc2nsc(C(=O)NCc3cccn3C)c2Cl)cc1` [I-1211], the LogP is 3.15[a]. `CCn1nc(C)c(CNC(=O)c2snc(NCc3ccc(OC)cc3)c2Cl)c1C` [I-1214]: the LogP is 2.57[a]. On the same count and under the same terms, the value for `COc1ccc(CNc2nsc(C(=O)NCc3ccc(OC)c(Cl)c3)c2Cl)cc1` [I-1240] was 3.68[a]. In the case of `Nc1nsc(C(=O)N2CCc3cc(F)ccc3C2)c1Cl` [II-019], the “LogP [a]” value was 2.09 and the “LogP [b]” value was 2.05. Turning to `COc1ccc(CNc2nsc(C(=O)NC(C)Cc3ccccc3Cl)c2Cl)cc1` (stereo not drawn) [II-010], the “LogP [a]” value was 4.33^[a].

The series is the same for the next values; noted with them: HPLC LC-UV, acidic range, 0.1% formic acid in water and acetonitrile as eluent.
On to `CCOC(=O)c1snc(N(Cc2ccccc2)Cc2ccccc2)c1C1CC1` [E-VII-024, ethyl 4-cyclopropyl-3-(dibenzylamino)isothiazole-5-carboxylate], for which the chromatographic logP stood at 5.91. The same measure, in the same setting: as for `Nc1nsc(C(=O)O)c1Cl` [E-VIII-012, 3-amino-4-chloroisothiazole-5-carboxylic acid], the figure is -0.13.
